Reference: ChEMBL document CHEMBL1130762, “Structure-activity relationships of a series of 1-substituted-4-methylbenzimidazole neuropeptide Y-1 receptor antagonists” (Bioorg Med Chem Lett, 1998)
“And” between values parts separate entries of the source, which are not always exact repeats. Equal values may be shown once.

These compounds were tested on SK-N-MC (assay: Tested to reverse NPY induced inhibition of forskolin-stimulated cAMP in SK-N-MC cells is evaluated.).
Type: functional, cell-based, Homo sapiens

Row | SMILES | Ki [nM]
1 | Cc1cccc2c1nc(COc1ccc(Cl)cc1)n2CCCC1CCN(CCCN2CCCCC2)CC1 | 46

The compounds below were run on SK-N-MC (assay: Inhibition of NPY induced intracellular Ca++ mobilization in SK-N-MC cells is evaluated.).
Type: functional, cell-based, Homo sapiens

Row | SMILES | Ki [nM]
2 | Cc1cccc2c1nc(COc1ccc(Cl)cc1)n2CCCC1CCN(CCCN2CCCCC2)CC1 | 26

Each compound was assayed against T1, Neuropeptide Y receptor type 1 (Homo sapiens, UniProt P25929) (assay: Binding affinity at cloned Neuropeptide Y-1 receptor expressed in AV-12 cells is evaluated.).
T1 sequence (P25929 whole entry): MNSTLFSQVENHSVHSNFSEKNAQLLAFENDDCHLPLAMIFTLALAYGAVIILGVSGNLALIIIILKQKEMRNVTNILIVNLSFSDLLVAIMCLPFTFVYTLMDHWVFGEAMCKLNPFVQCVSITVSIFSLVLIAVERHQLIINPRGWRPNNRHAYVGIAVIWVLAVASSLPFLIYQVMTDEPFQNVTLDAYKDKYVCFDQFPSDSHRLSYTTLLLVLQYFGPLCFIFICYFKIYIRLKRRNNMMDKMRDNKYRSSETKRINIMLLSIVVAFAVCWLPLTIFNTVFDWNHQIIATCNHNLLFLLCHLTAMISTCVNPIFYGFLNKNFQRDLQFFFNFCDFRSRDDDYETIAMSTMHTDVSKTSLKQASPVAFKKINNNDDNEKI
Type: cell-based, AV12

Row | Ki | SMILES
3 | 109 nM | Cc1cccc2c1nc(COc1ccc(Cl)cc1)n2CCCC1CCN(Cc2ccccc2)CC1
4 | 37 nM | Cc1cccc2c1nc(COc1ccc(Cl)cc1)n2CCCC1CCN(CCN2CCCCC2)CC1
5 | 52 nM and 5.7 nM | Cc1cccc2c1nc(COc1ccc(Cl)cc1)n2CCCC1CCN(CCCCN2CCCCC2)CC1
6 | 11 nM | Cc1cccc2c1nc(COc1ccc(Cl)cc1)n2CCCC1CCN(CCC(C)C)CC1
7 | 29 nM | Cc1cccc2c1nc(COc1ccc(Cl)cc1)n2CCCC1CCN(CCc2ccccc2)CC1
8 | 2190 nM | Cc1cccc2c1nc(COc1ccc(Cl)cc1)n2CCCC1CCN(CC(=O)O)CC1
9 | 335 nM | Cc1cccc2c1nc(COc1ccc(Cl)cc1)n2CCCC1CCNCC1
10 | 57 nM | Cc1cccc2c1nc(COc1ccc(Cl)cc1)n2CCCC1CCN(CCCc2ccccc2)CC1
11 | 21 nM | Cc1cccc2c1nc(COc1ccc(Cl)cc1)n2CCCC1CCN(CCCC(=O)N2CCCCC2)CC1
12 | 136 nM | Cc1cccc2c1nc(COc1ccc(Cl)cc1)n2CCCC1CCN(CC(=O)N2CCCCC2)CC1
13 | 260 nM | Cc1cccc2c1nc(COc1ccc(Cl)cc1)n2CCCC1CCN(C(=O)CCN2CCCCC2)CC1
14 | 52 nM | Cc1cccc2c1nc(COc1ccc(Cl)cc1)n2CCCC1CCN(C)CC1
15 | 427 nM | CCOC(=O)CN1CCC(CCCn2c(COc3ccc(Cl)cc3)nc3c(C)cccc32)CC1
16 | 29 nM | CCOC(=O)CCCN1CCC(CCCn2c(COc3ccc(Cl)cc3)nc3c(C)cccc32)CC1
17 | 88 nM | Cc1cccc2c1nc(COc1ccc(Cl)cc1)n2CCCC1CCN(CCCC(N)=O)CC1
18 | 4.5 nM | Cc1cccc2c1nc(COc1ccc(Cl)cc1)n2CCCC1CCN(CCCN2CCCCC2)CC1
19 | 29 nM | CCCN1CCC(CCCn2c(COc3ccc(Cl)cc3)nc3c(C)cccc32)CC1
20 | 1630 nM | Cc1cccc2c1nc(COc1ccc(Cl)cc1)n2CCCC1CCN(CCCC(=O)O)CC1

These compounds were tested against T1, Neuropeptide Y receptor type 1 (assay: Binding affinity at cloned Neuropeptide Y receptor type 1 expressed in AV-12 cells is evaluated.).
Type: cell-based, AV12

Row | Ki [nM] | SMILES
21 | 2 | Clc1ccc(OCc2nc3c(OCCCN4CCCCC4)cccc3n2CCCC2CCCNC2)cc1 (stereo unspecified)
